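Interpolation was linear, between the two tested concentrations surrounding the appropriate level; five concentrations were tested over 48 hours in 96-well plates. GI50 marks 50% less growth. TGI is the concentration that stops growth completely.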
Key:
Assay in all cases: DTP human tumour cell line panel, 48 h
UACC-257 melanoma = system: UACC-257 melanoma
PC-3 prostate = system: PC-3 prostate
TK-10 renal = system: TK-10 renal
A549 NSCLC = system: A549 NSCLC
SK-MEL-5 melanoma = system: SK-MEL-5 melanoma
SK-OV-3 ovarian = system: SK-OV-3 ovarian
SF-268 CNS = system: SF-268 CNS
NCI-H226 lung = system: NCI-H226 lung
HCT-116 colon = system: HCT-116 colon
U251 CNS = system: U251 CNS
MCF7 breast = system: MCF7 breast
SR leukemia = system: SR leukemia
IGROV1 ovarian = system: IGROV1 ovarian
MDA-MB-435 = system: MDA-MB-435
M14 melanoma = system: M14 melanoma
SK-MEL-28 melanoma = system: SK-MEL-28 melanoma
BT-549 breast = system: BT-549 breast
HOP-92 NSCLC = system: HOP-92 NSCLC
RPMI-8226 leukemia = system: RPMI-8226 leukemia
HCT-15 colon = system: HCT-15 colon
NCI-H23 lung = system: NCI-H23 lung
SNB-19 CNS = system: SNB-19 CNS
ACHN renal = system: ACHN renal
SK-MEL-2 melanoma = system: SK-MEL-2 melanoma
HCC-2998 colon = system: HCC-2998 colon
T-47D breast = system: T-47D breast
UO-31 renal = system: UO-31 renal
SNB-75 CNS = system: SNB-75 CNS
A498 renal = system: A498 renal
NCI-H522 lung = system: NCI-H522 lung
MOLT-4 leukemia = system: MOLT-4 leukemia
786-0 renal = system: 786-0 renal
OVCAR-8 ovarian = system: OVCAR-8 ovarian
HS 578T breast = system: HS 578T breast
NCI-H460 lung = system: NCI-H460 lung
K-562 leukemia = system: K-562 leukemia
OVCAR-3 ovarian = system: OVCAR-3 ovarian
RXF 393 renal = system: RXF 393 renal
UACC-62 melanoma = system: UACC-62 melanoma
LOX IMVI melanoma = system: LOX IMVI melanoma
OVCAR-4 ovarian = system: OVCAR-4 ovarian
COLO 205 colon = system: COLO 205 colon
HL-60(TB) leukemia = system: HL-60(TB) leukemia
HOP-62 NSCLC = system: HOP-62 NSCLC
OVCAR-5 ovarian = system: OVCAR-5 ovarian
SW-620 colon = system: SW-620 colon
SN12C renal = system: SN12C renal
CAKI-1 renal = system: CAKI-1 renal
SF-295 CNS = system: SF-295 CNS
MDA-MB-231 breast = system: MDA-MB-231 breast
SF-539 CNS = system: SF-539 CNS
DU-145 prostate = system: DU-145 prostate
MALME-3M melanoma = system: MALME-3M melanoma
HT29 colon = system: HT29 colon
KM12 colon = system: KM12 colon
NCI/ADR-RES ovarian = system: NCI/ADR-RES ovarian
CCRF-CEM leukemia = system: CCRF-CEM leukemia
EKVX NSCLC = system: EKVX NSCLC

## Nc1c(C(=O)c2cccc(OCCN3CCOCC3)c2)cnn1-c1ccc(F)cc1
UACC-257 melanoma
  GI50: > 25 µM
  TGI: > 25 µM
PC-3 prostate
  GI50: > 25 µM
  TGI: > 25 µM
TK-10 renal
  GI50: > 25 µM
  TGI: > 25 µM
A549 NSCLC
  GI50: > 25 µM
  TGI: > 25 µM
SK-MEL-5 melanoma
  GI50: > 25 µM
  TGI: > 25 µM
SK-OV-3 ovarian
  GI50: > 25 µM
  TGI: > 25 µM
SF-268 CNS
  GI50: > 25 µM
  TGI: > 25 µM
NCI-H226 lung
  GI50: > 25 µM
  TGI: > 25 µM
HCT-116 colon
  GI50: > 25 µM
  TGI: > 25 µM
U251 CNS
  GI50: > 25 µM
  TGI: > 25 µM
MCF7 breast
  GI50: > 25 µM
  TGI: > 25 µM
SR leukemia
  GI50: > 25 µM
  TGI: > 25 µM
IGROV1 ovarian
  GI50: > 25 µM
  TGI: > 25 µM
MDA-MB-435
  GI50: > 25 µM
  TGI: > 25 µM
M14 melanoma
  GI50: > 25 µM
  TGI: > 25 µM
SK-MEL-28 melanoma
  GI50: > 25 µM
  TGI: > 25 µM
BT-549 breast
  GI50: > 25 µM
  TGI: > 25 µM
HOP-92 NSCLC
  GI50: > 25 µM
  TGI: > 25 µM
RPMI-8226 leukemia
  GI50: > 25 µM
  TGI: > 25 µM
HCT-15 colon
  GI50: > 25 µM
  TGI: > 25 µM
NCI-H23 lung
  GI50: > 25 µM
  TGI: > 25 µM
SNB-19 CNS
  GI50: > 25 µM
  TGI: > 25 µM
ACHN renal
  GI50: > 25 µM
  TGI: > 25 µM
SK-MEL-2 melanoma
  GI50: > 25 µM
  TGI: > 25 µM
HCC-2998 colon
  GI50: > 25 µM
  TGI: > 25 µM
T-47D breast
  GI50: > 23.7 µM
  TGI: > 25 µM
UO-31 renal
  GI50: > 25 µM
  TGI: > 25 µM
SNB-75 CNS
  GI50: > 25 µM
  TGI: > 25 µM
A498 renal
  GI50: > 25 µM
  TGI: > 25 µM
NCI-H522 lung
  GI50: > 25 µM
  TGI: > 25 µM
MOLT-4 leukemia
  GI50: > 25 µM
  TGI: > 25 µM
786-0 renal
  GI50: > 25 µM
  TGI: > 25 µM
OVCAR-8 ovarian
  GI50: > 25 µM
  TGI: > 25 µM
HS 578T breast
  GI50: > 25 µM
  TGI: > 25 µM
NCI-H460 lung
  GI50: > 25 µM
  TGI: > 25 µM
K-562 leukemia
  GI50: > 25 µM
  TGI: > 25 µM
OVCAR-3 ovarian
  GI50: > 25 µM
  TGI: > 25 µM
RXF 393 renal
  GI50: > 25 µM
  TGI: > 25 µM
UACC-62 melanoma
  GI50: > 25 µM
  TGI: > 25 µM
LOX IMVI melanoma
  GI50: > 25 µM
  TGI: > 25 µM
OVCAR-4 ovarian
  GI50: > 25 µM
  TGI: > 25 µM
COLO 205 colon
  GI50: > 25 µM
  TGI: > 25 µM
HL-60(TB) leukemia
  GI50: > 25 µM
  TGI: > 25 µM
HOP-62 NSCLC
  GI50: > 25 µM
  TGI: > 25 µM
OVCAR-5 ovarian
  GI50: > 25 µM
  TGI: > 25 µM
SW-620 colon
  GI50: > 25 µM
  TGI: > 25 µM
SN12C renal
  GI50: > 25 µM
  TGI: > 25 µM
CAKI-1 renal
  GI50: > 25 µM
  TGI: > 25 µM
SF-295 CNS
  GI50: > 25 µM
  TGI: > 25 µM
MDA-MB-231 breast
  GI50: > 25 µM
  TGI: > 25 µM
SF-539 CNS
  GI50: > 25 µM
  TGI: > 25 µM
DU-145 prostate
  GI50: > 25 µM
  TGI: > 25 µM
MALME-3M melanoma
  GI50: > 25 µM
  TGI: > 25 µM
HT29 colon
  GI50: > 25 µM
  TGI: > 25 µM
KM12 colon
  GI50: > 25 µM
  TGI: > 25 µM
NCI/ADR-RES ovarian
  GI50: > 25 µM
  TGI: > 25 µM
CCRF-CEM leukemia
  GI50: > 25 µM
  TGI: > 25 µM

## COc1cccc(NCC(=O)Nn2c(-c3ccccc3)nc3ccccc3c2=O)c1
UACC-257 melanoma
  TGI: > 100 µM
PC-3 prostate
  TGI: > 100 µM
TK-10 renal
  TGI: > 100 µM
A549 NSCLC
  TGI: > 100 µM
SK-MEL-5 melanoma
  TGI: > 100 µM
SK-OV-3 ovarian
  TGI: > 100 µM
SF-268 CNS
  TGI: > 100 µM
NCI-H226 lung
  TGI: > 100 µM
EKVX NSCLC
  TGI: > 100 µM
HCT-116 colon
  TGI: > 100 µM
U251 CNS
  TGI: > 100 µM
MCF7 breast
  TGI: > 100 µM
SR leukemia
  TGI: > 100 µM
IGROV1 ovarian
  TGI: > 100 µM
MDA-MB-435
  TGI: > 100 µM
M14 melanoma
  TGI: > 100 µM
SK-MEL-28 melanoma
  TGI: > 100 µM
BT-549 breast
  TGI: > 100 µM
HOP-92 NSCLC
  TGI: > 100 µM
RPMI-8226 leukemia
  TGI: > 100 µM
HCT-15 colon
  TGI: > 100 µM
NCI-H23 lung
  TGI: > 100 µM
SNB-19 CNS
  TGI: > 100 µM
ACHN renal
  TGI: > 100 µM
HCC-2998 colon
  TGI: > 100 µM
T-47D breast
  TGI: > 100 µM
UO-31 renal
  TGI: > 100 µM
SNB-75 CNS
  TGI: > 100 µM
A498 renal
  TGI: 85 µM
NCI-H522 lung
  TGI: > 100 µM
MOLT-4 leukemia
  TGI: > 100 µM
786-0 renal
  TGI: > 100 µM
OVCAR-8 ovarian
  TGI: > 100 µM
HS 578T breast
  TGI: > 100 µM
NCI-H460 lung
  TGI: > 100 µM
K-562 leukemia
  TGI: > 100 µM
OVCAR-3 ovarian
  TGI: > 100 µM
RXF 393 renal
  TGI: > 100 µM
UACC-62 melanoma
  TGI: > 100 µM
LOX IMVI melanoma
  TGI: > 100 µM
OVCAR-4 ovarian
  TGI: > 100 µM
COLO 205 colon
  TGI: > 100 µM
HL-60(TB) leukemia
  TGI: > 100 µM
HOP-62 NSCLC
  TGI: > 100 µM
OVCAR-5 ovarian
  TGI: > 100 µM
SW-620 colon
  TGI: > 100 µM
SN12C renal
  TGI: > 100 µM
SF-295 CNS
  TGI: > 100 µM
MDA-MB-231 breast
  TGI: > 100 µM
SF-539 CNS
  TGI: > 100 µM
DU-145 prostate
  TGI: > 100 µM
MALME-3M melanoma
  TGI: > 100 µM
HT29 colon
  TGI: > 100 µM
KM12 colon
  TGI: > 100 µM
NCI/ADR-RES ovarian
  TGI: > 100 µM
CCRF-CEM leukemia
  TGI: > 100 µM
